# Results taken from the supplement of paper PMC10307832.
# Tests used:
# Assay in all cases: relative viability (nuclei count vs DMSO), 5 days (fraction); higher = more cells survive
# MLN4924 + Luminespib = compound: NS(=O)(=O)OC[C@@H]1C[C@@H](n2ccc3c(N[C@H]4CCc5ccccc54)ncnc32)C[C@@H]1O [MLN4924] + CCNC(=O)c1noc(-c2cc(C(C)C)c(O)cc2O)c1-c1ccc(CN2CCOCC2)cc1 [Luminespib] (partner 0.01 µM)
# Method in brief: (§1)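 Relative viability is defined as nuclei in treated wells over nuclei in vehicle wells. Duplicate plates were run and medians reported. Lung cancer cell lines in 1536-well plates were dosed by pin tool one day after seeding, with one drug or with a fixed anchor-drug dose plus five library-drug doses (not always all listed) in √10 steps, and nuclei were counted after 5 days.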
# MLN4924 + Palbociclib = compound: NS(=O)(=O)OC[C@@H]1C[C@@H](n2ccc3c(N[C@H]4CCc5ccccc54)ncnc32)C[C@@H]1O [MLN4924] + CC(=O)c1c(C)c2cnc(Nc3ccc(N4CCNCC4)cn3)nc2n(C2CCCC2)c1=O [Palbociclib] (partner 0.5 µM)
# Method in brief: as §1
# GSK126 + Navitoclax = compound: CC[C@H](C)N1C=C(C2=C(C=C(C=C21)C3=CN=C(C=C3)N4CCNCC4)C(=O)NCC5=C(C=C(NC5=O)C)C)C [GSK126] + CC1(C)CCC(c2ccc(Cl)cc2)=C(CN2CCN(c3ccc(C(=O)NS(=O)(=O)c4ccc(N[C@H](CCN5CCOCC5)CSc5ccccc5)c(S(=O)(=O)C(F)(F)F)c4)cc3)CC2)C1 [Navitoclax] (partner 0.5 µM)
# Method in brief: as §1
# MLN4924 + Lapatinib = compound: NS(=O)(=O)OC[C@@H]1C[C@@H](n2ccc3c(N[C@H]4CCc5ccccc54)ncnc32)C[C@@H]1O [MLN4924] + CS(=O)(=O)CCNCc1ccc(-c2ccc3ncnc(Nc4ccc(OCc5cccc(F)c5)c(Cl)c4)c3c2)o1 [Lapatinib] (partner 2 µM)
# Method in brief: as §1
Cell Line,relative viability (MLN4924 + Luminespib; first compound 0.04 µM),relative viability (MLN4924 + Luminespib; first compound 0.1265 µM),relative viability (MLN4924 + Luminespib; first compound 0.4 µM),relative viability (MLN4924 + Luminespib; first compound 1.265 µM),relative viability (MLN4924 + Luminespib; first compound 4 µM),relative viability (MLN4924 + Palbociclib; first compound 0.04 µM),relative viability (MLN4924 + Palbociclib; first compound 0.1265 µM),relative viability (MLN4924 + Palbociclib; first compound 0.4 µM),relative viability (MLN4924 + Palbociclib; first compound 1.265 µM),relative viability (MLN4924 + Palbociclib; first compound 4 µM),relative viability (GSK126 + Navitoclax; first compound 0.08 µM),relative viability (GSK126 + Navitoclax; first compound 0.253 µM),relative viability (GSK126 + Navitoclax; first compound 0.8 µM),relative viability (GSK126 + Navitoclax; first compound 2.53 µM),relative viability (GSK126 + Navitoclax; first compound 8 µM),relative viability (MLN4924 + Lapatinib; first compound 0.04 µM),relative viability (MLN4924 + Lapatinib; first compound 0.1265 µM),relative viability (MLN4924 + Lapatinib; first compound 0.4 µM),relative viability (MLN4924 + Lapatinib; first compound 1.265 µM),relative viability (MLN4924 + Lapatinib; first compound 4 µM)
LOU-NH91,0.334,0.3,0.281,0.246,0.303,0.494,0.521,0.532,0.426,0.413,0.732,0.656,0.68,0.751,0.706,0.814,0.926,0.904,0.533,0.414
LU99A,0.248,0.177,0.203,0.194,0.206,0.414,0.333,0.318,0.163,0.125,0.926,0.812,0.705,0.777,0.766,0.779,0.339,0.294,0.145,0.151
LXF-289,0.61,0.425,0.386,0.153,0.144,0.568,0.458,0.472,0.194,0.112,0.979,0.912,0.935,0.986,0.981,0.804,0.682,0.416,0.184,0.15
NCI-H23,0.231,0.175,0.228,0.208,0.214,0.478,0.441,0.26,0.175,0.2,0.847,0.837,0.895,0.996,1.03,0.282,0.232,0.202,0.125,0.169
NCI-H322M,1.25,1.11,0.989,0.488,0.311,0.56,0.656,0.504,0.389,0.395,1.19,1.35,1.11,1.22,1.17,0.796,1.01,1.19,0.301,0.285
NCI-H460,0.0434,0.0335,0.0273,0.0208,0.0178,0.189,0.121,0.0985,0.0213,0.0283,1.14,1.17,1.17,1.1,1.18,0.657,0.0947,0.0407,0.016,0.0144
NCI-H520,0.25,0.2,0.227,0.213,0.205,0.224,0.226,0.153,0.145,0.156,1.24,1.02,1.03,1.14,1.34,0.594,0.437,0.323,0.17,0.162
NCI-H647,0.193,0.157,0.127,0.0558,0.0842,0.22,0.264,0.0524,0.029,0.0424,1.14,1.05,1.07,1.11,1.15,0.817,0.539,0.0888,0.0473,0.0818
NCI-H727,0.31,0.382,0.368,0.383,0.235,0.681,0.584,0.566,0.476,0.535,0.444,0.354,0.51,0.408,0.361,0.692,0.704,0.352,0.24,0.192
NCI-H838,0.23,0.279,0.173,0.12,0.125,0.253,0.256,0.175,0.138,0.138,1.15,1.18,1.09,1.1,0.978,0.754,0.273,0.257,0.126,0.148
NCI-H1355,0.636,0.684,0.775,0.366,0.208,0.418,0.409,0.445,0.234,0.195,0.985,1.07,0.911,1.01,1.02,0.952,1.02,0.64,0.181,0.166
NCI-H1395,0.867,0.619,0.539,0.429,0.346,0.726,0.679,0.528,0.357,0.354,1.59,1.04,1.09,1.33,0.95,0.793,0.986,0.5,0.39,0.351
NCI-H1437,0.783,1.05,0.811,0.626,0.226,0.292,0.321,0.228,0.187,0.134,1.14,1.11,1.04,1.03,1.03,0.79,0.656,0.268,0.119,0.1
NCI-H1650,0.225,0.217,0.243,0.224,0.203,0.286,0.221,0.19,0.131,0.136,1.33,1.19,1.1,1.12,1.06,0.385,0.261,0.182,0.149,0.185
NCI-H1651,0.725,0.745,0.607,0.315,0.224,0.521,0.54,0.569,0.374,0.191,1.19,0.943,1.07,1.07,1.2,0.911,0.776,0.281,0.138,0.116
NCI-H1666,1,1.05,0.498,0.324,0.342,0.553,0.549,0.693,0.492,0.46,1.08,0.982,1.02,0.833,1.12,0.382,0.307,0.305,0.159,0.211

Cell Line,relative viability (MLN4924 + Luminespib; first compound 0.04 µM),relative viability (MLN4924 + Luminespib; first compound 0.1265 µM),relative viability (MLN4924 + Luminespib; first compound 0.4 µM),relative viability (MLN4924 + Luminespib; first compound 1.265 µM),relative viability (MLN4924 + Luminespib; first compound 4 µM),relative viability (MLN4924 + Palbociclib; first compound 0.04 µM),relative viability (MLN4924 + Palbociclib; first compound 0.1265 µM),relative viability (MLN4924 + Palbociclib; first compound 0.4 µM),relative viability (MLN4924 + Palbociclib; first compound 1.265 µM),relative viability (MLN4924 + Palbociclib; first compound 4 µM),relative viability (GSK126 + Navitoclax; first compound 0.08 µM),relative viability (GSK126 + Navitoclax; first compound 0.253 µM),relative viability (GSK126 + Navitoclax; first compound 0.8 µM),relative viability (GSK126 + Navitoclax; first compound 2.53 µM),relative viability (GSK126 + Navitoclax; first compound 8 µM),relative viability (MLN4924 + Lapatinib; first compound 0.04 µM),relative viability (MLN4924 + Lapatinib; first compound 0.1265 µM),relative viability (MLN4924 + Lapatinib; first compound 0.4 µM),relative viability (MLN4924 + Lapatinib; first compound 1.265 µM),relative viability (MLN4924 + Lapatinib; first compound 4 µM)
NCI-H1734,0.202,0.189,0.187,0.122,0.137,0.372,0.341,0.272,0.14,0.146,0.895,0.845,0.843,0.881,0.86,1.02,0.925,0.19,0.118,0.134
NCI-H1755,0.441,0.443,0.238,0.221,0.231,0.4,0.442,0.314,0.209,0.257,1.07,0.996,0.999,0.997,0.969,0.933,1.03,0.386,0.181,0.165
NCI-H1792,0.515,0.436,0.495,0.321,0.359,0.654,0.583,0.689,0.453,0.353,0.733,0.644,0.655,0.664,0.658,0.806,0.599,0.484,0.182,0.175
NCI-H1793,0.162,0.125,0.182,0.297,0.148,0.338,0.295,0.442,0.265,0.214,0.503,0.491,0.379,0.369,0.416,0.662,0.645,0.395,0.136,0.167
NCI-H1915,0.728,0.639,0.761,0.231,0.17,0.501,0.396,0.389,0.161,0.121,0.83,0.789,0.786,0.789,0.786,0.88,0.962,0.649,0.166,0.156
NCI-H1944,0.783,0.482,0.578,0.171,0.168,0.374,0.371,0.366,0.197,0.178,1.28,1.02,1.01,0.996,1.2,0.834,0.919,0.636,0.164,0.17
NCI-H1975,0.322,0.556,0.36,0.382,0.252,0.549,0.696,0.707,0.557,0.231,1.04,1.18,0.94,0.998,0.892,1.13,1.02,0.308,0.152,0.169
NCI-H1993,0.482,0.458,0.441,0.406,0.47,0.792,0.428,0.422,0.362,0.377,0.981,0.931,0.754,1.06,0.892,0.732,0.666,0.581,0.547,0.516
NCI-H2009,0.924,0.553,0.292,0.18,0.139,0.0712,0.0898,0.0671,0.0534,0.0501,1.23,1.14,1.19,1.1,1.16,0.437,0.261,0.237,0.087,0.111
NCI-H2023,0.651,0.539,0.179,0.0673,0.0714,0.496,0.366,0.207,0.0822,0.0604,1.04,0.984,1.04,1.09,0.995,0.352,0.133,0.0733,0.0477,0.0781
NCI-H2085,0.422,0.407,0.534,0.375,0.311,0.489,0.505,0.587,0.556,0.416,1.16,1.12,1.19,1.09,1.19,0.812,0.89,0.465,0.313,0.283
NCI-H2087,0.143,0.148,0.139,0.129,0.0909,0.184,0.184,0.19,0.0803,0.093,0.992,0.917,1.14,1.02,1.14,0.843,0.597,0.233,0.142,0.132
NCI-H2126,0.898,0.843,0.609,0.472,0.309,0.403,0.424,0.397,0.327,0.237,0.915,0.919,0.812,0.852,0.934,0.724,0.762,0.406,0.241,0.261
NCI-H2170,0.631,0.443,0.269,0.172,0.147,0.392,0.242,0.253,0.109,0.124,0.623,0.607,0.575,0.632,0.606,0.258,0.301,0.25,0.208,0.228
NCI-H2228,0.178,0.181,0.195,0.19,0.113,0.743,0.891,0.277,0.188,0.13,0.55,1.01,1.1,0.863,0.837,–,0.638,0.271,0.13,0.161
